Marks after values point to notes of the source that are not given here.

From patent publication US12543738B2 (Bayer Aktiengesellschaft, priority 2020, dated 2026) come the findings set out here.

Data set [1] is described as follows: Measurement of LogP values by HPLC on reversed phase columns (EEC directive 79/831 Annex V.A8). Type of data set: physicochemical. The conditions noted are these: for chromatographic logP: method [a]: LC-UV, acidic range. How it is done: Calibration was done with straight-chain alkan2-ones (with 3 to 16 carbon atoms) with known LogP values (measurement of LogP values using retention times with linear interpolation between successive alkanones). Lambda-max-values were determined using UV-spectra from 200 nm to 400 nm and the peak values of the chromatographic signals

The next data set relates to Botrytis cinerea. The experiment in a line: In vivo preventive test on Botrytis cinerea (grey mould). As to conditions: 500 ppm of active ingredient, preventive spray on gherkin or cabbage, evaluated 4 to 5 days after inoculation, read-out: efficacy. The procedure:
The active ingredients were made soluble and homogenized in a mixture of Dimethyl sulfoxide/Acetone//Tween® 80 and then diluted in water to the desired concentration. The young plants of gherkin or cabbage were treated by spraying the active ingredient prepared as described above. Control plants were treated only with an aqueous solution of Acetone/Dimethyl sulfoxide/Tween® 80. After 24 hours, the plants were contaminated by spraying the leaves with an aqueous suspension of Botrytis cinerea spores.

Another data set concerns Pyrenophora teres. As to the kind of experiment: In vivo preventive test on Pyrenophora teres (net blotch on barley). As to conditions: 240 h, 500 ppm of active ingredient, preventive spray on barley, evaluated 10 days after inoculation, read-out: efficacy. The procedure:
The active ingredients were made soluble and homogenized in a mixture of Dimethyl sulfoxide/Acetone//Tween® 80 and then diluted in water to the desired concentration. The young plants of barley were treated by spraying the active ingredient prepared as described above. Control plants were treated only with an aqueous solution of Acetone/Dimethyl sulfoxide/Tween® 80. After 24 hours, the plants were contaminated by spraying the leaves with an aqueous suspension of Pyrenophora teres spores.

A further data set deals with Sphaerotheca fuliginea. As to the kind of experiment: In vivo preventive test on Sphaerotheca fuliginea (powdery mildew on cucurbits). As to conditions: Podosphaera fuliginea, 192 h; 500 ppm of active ingredient; preventive spray on gherkin; evaluated 8 days after inoculation; read-out: efficacy. The procedure: The active ingredients were made soluble and homogenized in a mixture of Dimethyl sulfoxide/Acetone//Tween® 80 and then diluted in water to the desired concentration. The young plants of gherkin were treated by spraying the active ingredient prepared as described above. Control plants were treated only with an aqueous solution of Acetone/Dimethyl sulfoxide/Tween® 80. After 24 hours, the plants were contaminated by spraying the leaves with an aqueous suspension of Sphaerotheca fuliginea spores.

Data set [2] relates to Colletotrichum lindemuthianum. As to the kind of experiment: In vivo preventive test on Colletotrichum lindemuthianum (leaf spot on bean). As to conditions: 168 h, 500 ppm of active ingredient, preventive spray on bean, evaluated 7 days after inoculation, read-out: efficacy. The procedure:
The active ingredients were made soluble and homogenized in a mixture of Dimethyl sulfoxide/Acetone//Tween® 80 and then diluted in water to the desired concentration. The young plants of bean were treated by spraying the active ingredient prepared as described above. Control plants were treated only with an aqueous solution of Acetone/Dimethyl sulfoxide/Tween® 80. After 24 hours, the plants were contaminated by spraying the leaves with an aqueous suspension of Colletotrichum lindemuthianum spores.

Another data set deals with Alternaria alternata. As to the kind of experiment: Alternaria alternata in vitro cell test. The format is cell-based. As to conditions: 120 h, 20 ppm of active ingredient, liquid culture, 5 days incubation, read-out: efficacy (inhibition of fungal growth). How it is done:
• Solvent: DMSO • Culture medium: 14.6 g anhydrous D-glucose (VWR), 7.1 g Mycological Peptone (Oxoid), 1.4 g granulated Yeast Extract (Merck), QSP 1 liter • Inoculum: spores suspension Fungicides were solubilized in DMSO and the solution used to prepare the required range of concentrations. […] A spore suspension of A. alternata was prepared and diluted to the desired spore density. Fungicides were evaluated for their ability to inhibit spore germination and mycelium growth in liquid culture assay. The compounds were added in the desired concentration to the culture medium with spores. After 5 days incubation, fungi-toxicity of compounds was determined by spectrometric measurement of mycelium growth. Inhibition of fungal growth was determined by comparing the absorbance values in wells containing the fungicides with the absorbance in control wells without fungicides.

The subject of the next data set is Pyricularia Oryzae. The experiment in a line: microbe, parasite or virus in culture. Type of data set: cell-based. The conditions noted are these: 120 h, read-out: efficacy (inhibition of fungal growth).
A further data set has as its system Alternaria brassicae. The experiment in a line: In vivo preventive test on Alternaria brassicae (leaf spot on radish or cabbage). As to conditions: 144 h, 500 ppm of active ingredient, preventive spray on radish or cabbage, evaluated 6 days after inoculation, read-out: efficacy. The procedure:
The active ingredients were made soluble and homogenized in a mixture of Dimethyl sulfoxide/Acetone//Tween® 80 and then diluted in water to the desired concentration. The young plants of radish or cabbage were treated by spraying the active ingredient prepared as described above. Control plants were treated only with an aqueous solution of Acetone/Dimethyl sulfoxide/Tween® 80. After 24 hours, the plants were contaminated by spraying the leaves with an aqueous suspension of Alternaria brassicae spores.

Setting [3] is: 0.1% formic acid in water and acetonitrile, compounds of formula (I-1), Table 1.
Where [4] appears, read: 0.1% formic acid, intermediates of formula (4), Table 9.

For orientation: chromatographic logP means a lipophilicity value derived from retention on a column. A lower chromatographic logP goes with a more hydrophilic compound. `Cc1ccc(CC(CON2C(=O)c3ccccc3C2=O)NC(=O)c2cc(C)nnc2Oc2cccc(Cl)c2)c(C)c1` (racemic) [Compound 3-01, 3-(3-chlorophenoxy)-N-{(2RS)-1-(2,4-dimethylphenyl)-3-[(1,3-dioxo-1,3-dihydro-2H-isoindol-2-yl)oxy]propan-2-yl}-6-methylpyridazine-4-carboxamide] yielded a chromatographic logP in data set [1] (0.1% formic acid, intermediates of formula (3), Table 7) of 4.47.

On to `Cc1cc(C(=O)O)c(Oc2cccc(C)c2F)nn1` [Compound 1-02], for which, in data set [1], the LogP is 1.32^[a].

Take `Cc1ccc(C)c(CC(CCl)NC(=O)c2cc(C)nnc2Oc2cccc(C)c2F)c1` (centres unmarked) [Compound 14-08]: the LogP in data set [1] is 4.37^[a].

As for `Cc1ccc(CC(CCl)NC(=O)c2cc(Cl)nnc2Oc2cccc(Cl)c2)c(Cl)c1` (centres unmarked) [Compound 14-12], in data set [1], the LogP is 4.97^[a].

Consider `Cc1ccc(CC(CCl)NC(=NO)c2cc(C)nnc2Oc2cccc(Cl)c2)c(Br)c1` (centres unmarked) [Compound 15-01], for which the LogP in data set [1] is 3.84^[a].

`Cc1ccc(CC(CCl)NC(=O)c2cc(C)nnc2Oc2cccc(Cl)c2)c(Cl)c1` (racemic) [Compound 14-03, N-[(2RS)-1-chloro-3-(2-chloro-4-methylphenyl)propan-2-yl]-3-(3-chlorophenoxy)-6-methylpyridazine-4-carboxamide]: the chromatographic logP in data set [1] (0.1% formic acid, intermediates of formula (14), Table 17) was 4.43.

With `Cc1cc(C(=O)OC(C)C)c(Oc2cccc(C3(F)CC3)c2)nn1` [Compound 1-06], in data set [1], the LogP is 4.73^[a].

As to `Cc1cc(C(=O)O)c(Oc2cccc(C3(F)CC3)c2)nn1` [Compound 1-05], the LogP in data set [1] is 0.68^[a].

`Cc1cc(C)cc(CC(N)CCl)c1.Cl` (centres unmarked) [Compound 13-02]: in data set [1], the LogP was 1.32[a].

With `O=C(NC(CON1C(=O)c2ccccc2C1=O)Cc1ccc(Cl)cc1Cl)c1cc(Cl)nnc1Oc1cccc(C2CC2)c1F` (centres unmarked) [Compound 3-02], in data set [1], the LogP is 5.27^[a].

With `Cc1cc(C)cc(CC(CCl)NC(=O)c2cc(C)nnc2Oc2cccc(C)c2F)c1` (centres unmarked) [Compound 14-04], the LogP in data set [1] was 4.47^[a].

Turning to `Clc1ccc(CC2CON=C(c3cc(Cl)nnc3Oc3cccc(C4(Cl)CC4)c3)N2)c(Cl)c1` (racemic) [Compound I-024, (5RS)-3-{6-chloro-3-[3-(1-chlorocyclopropyl)phenoxy]pyridazin-4-yl}-5-(2,4-dichlorobenzyl)-5,6-dihydro-4H-1,2,4-oxadiazine], the chromatographic logP in data set [1] (setting [3]) turned out to be 4.93.

Consider `Cc1ccc(CC(N)CON2C(=O)c3ccccc3C2=O)c(C)c1.O=C(O)C(F)(F)F` (centres unmarked) [Compound 2-01], for which the LogP in data set [1] is 1.55[a].

`Cc1cc(C)cc(CC(CCl)NC(=NO)c2cc(C)nnc2Oc2cccc(Cl)c2F)c1` (centres unmarked) [Compound 15-04]: the LogP in data set [1] is 3.98^[a].

Compound `Cc1ccc(CC2CON=C(c3cc(Cl)nnc3Oc3cccc(Cl)c3)N2)c(Cl)c1` (racemic) [Compound I-017, (5RS)-3-[6-chloro-3-(3-chlorophenoxy)pyridazin-4-yl]-5-(2-chloro-4-methylbenzyl)-5,6-dihydro-4H-1,2,4-oxadiazine] returned a chromatographic logP in data set [1] (setting [3]) of 4.44.

`Cc1ccc(C[C@H]2CON=C(c3cc(C(Cl)Cl)nnc3Oc3cccc(C4CC4)c3F)N2)c(C)c1` [Compound I-021, (5S)-3-[3-(3-cyclopropyl-2-fluorophenoxy)-6-(dichloromethyl)pyridazin-4-yl]-5-(2,4-dimethylbenzyl)-5,6-dihydro-4H-1,2,4-oxadiazine] returned a chromatographic logP in data set [1] (setting [3]) of 5.11.

As for `Cc1ccc(C)c(CC(CCl)NC(=NO)c2cc(C)nnc2Oc2cccc(C)c2F)c1` (centres unmarked) [Compound 15-06], the LogP in data set [1] is 3.74^[a].

For `Cc1ccc(CC(CCl)NC(=NO)c2cc(C)nnc2Oc2cccc(Cl)c2)c(Cl)c1` (racemic) [Compound 15-03], in data set [1] (0.1% formic acid, intermediates of formula (15), Table 15), the chromatographic logP is 3.78.

As to `Cc1ccc(C)c(CC(CCl)NC(=NO)c2cc(C)nnc2Oc2cccc(Cl)c2)c1` (centres unmarked) [Compound 15-07], in data set [1], the LogP is 3.74^[a].

For `Cc1cc(C(=O)O)c(Oc2cccc(Cl)c2)nn1` [Compound 1-01], the LogP in data set [1] was 1.26^[a].

`Cc1cc(C)cc(CC(CCl)NC(=O)c2cc(C)nnc2Oc2cccc(Cl)c2F)c1` (centres unmarked) [Compound 14-06]: in data set [1], the LogP was 4.59^[a].

With `Cc1ccc(CC(CCl)NC(=O)c2cc(C)nnc2Oc2cccc(C)c2F)c(Cl)c1` (centres unmarked) [Compound 14-02], the LogP in data set [1] is 4.43^[a].

Regarding `Cc1ccc(CC(CCl)NC(=O)c2cc(C)nnc2Oc2cccc(C3(F)CC3)c2)c(C)c1` (centres unmarked) [Compound 14-10], in data set [1], the LogP was 4.58^[a].

In the case of `Cc1ccc(CC(CCl)NC(=NO)c2cc(C)nnc2Oc2cccc(C)c2F)c(Cl)c1` (centres unmarked) [Compound 15-02], the LogP in data set [1] was 3.75^[a].

Consider `Cc1ccc(C)c(CC(CCl)NC(=NO)c2cc(C)nnc2Oc2cccc(Cl)c2F)c1` (centres unmarked) [Compound 15-05], for which, in data set [1], the LogP was 3.84^[a].

Take `Cc1ccc(C)c(CC(CCl)NC(=O)c2cc(C)nnc2Oc2cccc(Cl)c2)c1` (centres unmarked) [Compound 14-09]: in data set [1], the LogP was 4.37^[a].

By inhibition is commonly meant the share of the control response that was lost under treatment. `Cc1cc(C2=NOCC(Cc3ccc(Cl)cc3Cl)N2)c(Oc2cccc(C3(Cl)CC3)c2)nn1` (racemic) [Compound I-022, (5RS)-3-{3-[3-(1-chlorocyclopropyl)phenoxy]-6-methylpyridazin-4-yl}-5-(2,4-dichlorobenzyl)-5,6-dihydro-4H-1,2,4-oxadiazine]: the chromatographic logP in data set [1] (setting [3]) was determined as 4.51. Also, the pest or weed control at 500 ppm (with Botrytis cinerea; in the data set with Pyrenophora teres; in the data set on Sphaerotheca fuliginea; in data set [2]; in the data set with Alternaria brassicae) was 90 to 100% each time. Moreover, the inhibition at 20 ppm in the data set with Alternaria alternata is 90 to 100%; with Pyricularia Oryzae, 70 to 79%.

Regarding `Cc1ccc(C)c(CC(CCl)NC(=O)c2cc(C)nnc2Oc2cccc(Cl)c2F)c1` (centres unmarked) [Compound 14-07], the LogP in data set [1] is 4.42^[a].

For the compound `Cc1ccc(CC(CON)NC(=O)c2cc(C)nnc2Oc2cccc(Cl)c2)c(C)c1` (racemic) [Compound 4-01, N-[(2RS)-1-(aminooxy)-3-(2,4-dimethylphenyl)propan-2-yl]-3-(3-chlorophenoxy)-6-methylpyridazine-4-carboxamide], the chromatographic logP in data set [1] (setting [4]) came to 2.64.

In data set [1] (setting [4]), `NOCC(Cc1ccc(Cl)cc1Cl)NC(=O)c1cc(Cl)nnc1Oc1cccc(C2CC2)c1F` (racemic) [Compound 4-02, 6-chloro-3-(3-cyclopropyl-2-fluoro-phenoxy)-N-[(1RS)-1-(aminooxymethyl)-2-(2,4-dichlorophenyl)ethyl]pyridazine-4-carboxamide] returned a chromatographic logP of 3.7.

As to `Cc1cc(C)cc(CC(CCl)NC(=O)c2cc(C)nnc2Oc2cccc(Cl)c2)c1` (centres unmarked) [Compound 14-05], the LogP in data set [1] was 4.51^[a].

In the case of `Cc1ccc(CC(N)CCl)c(C)c1.Cl` (centres unmarked) [Compound 13-04], the LogP in data set [1] was 1.24[a].

With `Cc1ccc(CC(CCl)NC(=O)c2cc(C)nnc2Oc2cccc(Cl)c2)c(Br)c1` (centres unmarked) [Compound 14-01], the LogP in data set [1] was 4.51^[a].

`Cc1ccc(C)c(CC(N)CCl)c1.Cl` (centres unmarked) [Compound 13-03]: the LogP in data set [1] was 1.13[a].
